Laboratory results from patent publication US20120165304A1, “6,7,8,9-Tetrahydro-5H-1,4,7,10a-tetraaza-cyclohept[f]indene derivatives, pharmaceutical compositions containing these compounds, their use and processes for preparing them” (BOEHRINGER INGELHEIM INTERNATIONAL GMBH, priority 2008, published 2012).
pEC50: −log10 of the molar value.

target: human 5-HT2C receptor (Homo sapiens, UniProt P28335, I156V/I160V/N158S); assay: cell-based
Sequence (P28335 33-458 I156V/N158S/I160V limits assumed): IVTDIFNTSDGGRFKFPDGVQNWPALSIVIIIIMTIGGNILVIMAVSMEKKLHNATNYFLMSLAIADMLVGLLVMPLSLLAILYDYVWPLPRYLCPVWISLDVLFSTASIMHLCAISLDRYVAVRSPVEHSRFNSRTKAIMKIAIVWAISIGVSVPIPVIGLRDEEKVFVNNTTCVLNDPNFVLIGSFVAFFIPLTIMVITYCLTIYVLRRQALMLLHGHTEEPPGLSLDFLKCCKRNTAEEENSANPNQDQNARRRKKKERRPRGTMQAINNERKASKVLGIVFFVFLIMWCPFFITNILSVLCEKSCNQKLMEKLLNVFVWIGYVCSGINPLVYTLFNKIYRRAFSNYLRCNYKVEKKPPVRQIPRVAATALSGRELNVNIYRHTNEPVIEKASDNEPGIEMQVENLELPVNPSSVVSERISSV

Compared with COc1ccc(N(C)C(=O)C2CN(c3c4c(nc5ccnn35)CCNCC4)C2)cc1 [Example 31.31], COc1ccc(C(O)C2CN(c3c4c(nc5ccnn35)CCNCC4)C2)cc1 (stereo not shown) [Example 19, (4-Methoxy-phenyl)-[1-(6,7,8,9-tetrahydro-5H-1,4,7,10a-tetraaza-cyclohepta[f]inden-10-yl)-azetidin-3-yl]-methanol] is 1.19 log units higher in pEC50: 5.67 for the first, 6.86 for the second. The second is the more potent here.

O=C(C1CN(c2c3c(nc4ccnn24)CCNCC3)C1)N1CCCC(F)(F)CC1 [Example 40, (4,4-Difluoro-perhydro-azepin-1-yl)-[1-(6,7,8,9-tetrahydro-5H-1,4,7,10a-tetraaza-cyclohept[f]inden-10-yl)-azetidin-3-yl]-methanone] and CC1(C)CCN(C(=O)C2CN(c3c4c(nc5ccnn35)CCNCC4)C2)C1 [Example 31.53] are within 0.2 log units of each other in pEC50: 8.22 for the first, 8.10 for the second.

CC(C)N1CCN(C(=O)C2CN(c3c4c(nc5ccnn35)CCNCC4)C2)CC1 [Example 37.3] and CC(C)CN1CCN(C(=O)C2CN(c3c4c(nc5ccnn35)CCNCC4)C2)CC1 [Example 37.15] are the same in pEC50: 8.52 for the first, 8.52 for the second.

O=C(C1CN(c2c3c(nc4ccnn24)CCNCC3)C1)N1CCc2ccccc2C1 [Example 31.60] and C=CCC1CN(C(=O)C2CN(c3c4c(nc5ccnn35)CCNCC4)C2)Cc2ccccc21 (stereo not shown) [Example 31.88] are within 0.2 log units of each other in pEC50: 7.24 for the first, 7.15 for the second.

O=C(NCC1CCCCO1)C1CN(c2c3c(nc4ccnn24)CCNCC3)C1 (stereo not shown) [Example 37.55] and O=C(NCCF)C1CN(c2c3c(nc4ccnn24)CCNCC3)C1 [Example 37.107] are within 0.2 log units of each other in pEC50: 7.18 for the first, 7.04 for the second.

O=C(C1CN(c2c3c(nc4ccnn24)CCNCC3)C1)N1CC[C@H](Oc2cccc(Cl)c2)C1 [Example 31.213] and Cc1cccc(C2CCN(C(=O)C3CN(c4c5c(nc6ccnn46)CCNCC5)C3)CC2)c1 [Example 31.167] are within 0.2 log units of each other in pEC50: 6.99 for the first, 7.00 for the second.

O=C(C1CN(c2c3c(nc4ccnn24)CCNCC3)C1)N1CCC(CCc2ccc(F)cc2)CC1 [Example 31.105] and O=C(C1CN(c2c3c(nc4ccnn24)CCNCC3)C1)N1CCC(c2ccc(C(F)(F)F)cc2)CC1 [Example 31.109] are within 0.2 log units of each other in pEC50: 6.95 for the first, 7.08 for the second.

First: c1cc2nc3c(c(N4CC(OCC5CCCCC5)C4)n2n1)CCNCC3 [Example 20.4]
Second: CC1CCCC(NC(=O)C2CN(c3c4c(nc5ccnn35)CCNCC4)C2)C1 (stereo not shown) [Example 37.70]
The pEC50 of the first is 0.89 log units lower: 6.27 for the first, 7.16 for the second.

Compared with CCN(Cc1ccccc1)C(=O)C1CN(c2c3c(nc4ccnn24)CCNCC3)C1 [Example 31.23], O=C(C1CN(c2c3c(nc4ccnn24)CCNCC3)C1)N(Cc1ccccc1)Cc1ccc(F)cc1 [Example 31.197] is 0.45 log units higher in pEC50: 6.46 for the first, 6.91 for the second. The second is the more potent here.

Compared with CC1CN(C(=O)C2CN(c3c4c(nc5c(Br)cnn35)CCNCC4)C2)CC(C)O1 (stereo not shown) [Example 31.140], C[C@@H]1CN(C(=O)C2CN(c3c4c(nc5ccnn35)CCN(C)CC4)C2)C[C@H](C)O1 [Example 36.21] is 0.40 log units lower in pEC50: 7.19 for the first, 6.79 for the second.

Compared with COc1ccc(OCC2CN(c3c4c(nc5ccnn35)CCNCC4)C2)c(F)c1 [Example 15.9], COc1cc(Cl)ccc1OCC1CN(c2c3c(nc4ccnn24)CCNCC3)C1 [Example 15.26] is 1.36 log units lower in pEC50: 8.15 for the first, 6.79 for the second. The first is the more potent here.

First: CC(=O)N1CCN(C(=O)C2CN(c3c4c(nc5ccnn35)CCN(C)CC4)C2)CC1 [Example 36.52]
Second: CC(C)C1CCN(C(=O)C2CN(c3c4c(nc5ccnn35)CCN(C)CC4)C2)CC1 [Example 36.20]
The pEC50 of the first is 0.46 log units lower: 6.74 for the first, 7.20 for the second.

Compared with CN1CCc2nc3ccnn3c(N3CC(C(=O)N[C@H]4CC[C@H](N(C)C)CC4)C3)c2CC1 [Example 36.16], CN1CCc2nc3ccnn3c(N3CC(C(=O)NC4CCOCC4)C3)c2CC1 [Example 36.35] is 0.39 log units higher in pEC50: 6.55 for the first, 6.94 for the second.

Going from O=C(C1CN(c2c3c(nc4ccnn24)CCNCC3)C1)N1CCC(C(F)(F)F)C1 (stereo not shown) [Example 31.95] to CC1CCCN1C(=O)C1CN(c2c3c(nc4ccnn24)CCNCC3)C1 (stereo not shown) [Example 31.73], the pEC50 falls from 7.39 to 6.60 (0.79 log units). The first is the more potent here.

CN1CCc2nc3ccnn3c(N3CC(C(=O)NC4CC(C)(C)N(C)C(C)(C)C4)C3)c2CC1 [Example 36.25] and CN1CCc2nc3ccnn3c(N3CC(C(=O)N4CC(N(C)C)C4)C3)c2CC1 [Example 36.48] are within 0.2 log units of each other in pEC50: 6.69 for the first, 6.57 for the second.

First: CC(C)c1ccc(CN(C)C(=O)C2CN(c3c4c(nc5ccnn35)CCNCC4)C2)cc1 [Example 31.163]
Second: CN(Cc1c(Cl)cccc1Cl)C(=O)C1CN(c2c3c(nc4ccnn24)CCNCC3)C1 [Example 31.160]
The pEC50 of the first is 0.63 log units higher: 6.97 for the first, 6.34 for the second.

Compared with CCc1cnn2c(N3CCC3)c3c(nc12)CCNCC3 [Example 25.2], CCc1cnn2c(N3CCCCC3)c3c(nc12)CCNCC3 [Example 25, 3-Ethyl-10-piperidin-1-yl-6,7,8,9-tetrahydro-5H-1,4,7,10a-tetraaza-cyclohepta[f]indene] is 0.95 log units lower in pEC50: 7.92 for the first, 6.97 for the second. The first is the more potent here.

CC1CC(C)CC(N(C)C(=O)C2CN(c3c4c(nc5ccnn35)CCNCC4)C2)C1 (stereo not shown) [Example 31.216] and CCN(C)C(=O)C1CN(c2c3c(nc4ccnn24)CCNCC3)C1 [Example 31.4] are within 0.2 log units of each other in pEC50: 6.07 for the first, 6.16 for the second.

Going from c1cc2c(c(OC3CN(c4c5c(nc6ccnn46)CCNCC5)C3)c1)CCCC2 [Example 35.25] to Clc1ccc(OC2CN(c3c4c(nc5ccnn35)CCNCC4)C2)cc1 [Example 35, 10-[3-(4-Chloro-phenoxy)-azetidin-1-yl]-6,7,8,9-tetrahydro-5H-1,4,7,10a-tetraaza-cyclohepta[f]indene], the pEC50 rises from 6.18 to 6.85 (0.67 log units). The second is the more potent here.

Compared with c1ccc(C2CCN2c2c3c(nc4ccnn24)CCNCC3)cc1 (stereo not shown) [Example 21, 10-(2-Phenyl-azetidin-1-yl)-6,7,8,9-tetrahydro-5H-1,4,7,10a-tetraaza-cyclohepta[f]indene], c1ccc(C2CCN(c3c4c(nc5ccnn35)CCNCC4)C2)cc1 (stereo not shown) [Example 1.26] is 1.52 log units higher in pEC50: 5.28 for the first, 6.80 for the second. The second is the more potent here.

Going from Cc1cnn2c(N3CCCCC3)c3c(nc12)CCNCC3 [Example 27.1] to c1cc2nc3c(c(N4CCCOCC4)n2n1)CCNCC3 [Example 1, 10-[1,4]Oxazepan-4-yl-6,7,8,9-tetrahydro-5H-1,4,7,10a-tetraaza-cyclohepta[f]indene], the pEC50 falls from 7.43 to 6.04 (1.39 log units).

Going from C1=C(c2c3c(nc4ccnn24)CCNCC3)CCNC1 [Example 24, 10-(1,2,3,6-Tetrahydro-pyridin-4-yl)-6,7,8,9-tetrahydro-5H-1,4,7,10a-tetraaza-cyclohepta[f]indene] to c1cc2nc3c(c(C4CCC4)n2n1)CCNCC3 [Example 23, 10-Cyclobutyl-6,7,8,9-tetrahydro-5H-1,4,7,10a-tetraaza-cyclohepta[f]indene], the pEC50 rises from 6.23 to 6.94 (0.71 log units).

O=C(C1CN(c2c3c(nc4ccnn24)CCNCC3)C1)N1CCCC(c2ccccc2)C1 (stereo not shown) [Example 31.108] and O=C(C1CN(c2c3c(nc4ccnn24)CCNCC3)C1)N1CCC2(CCCc3ccccc32)C1 (stereo not shown) [Example 31.222] are within 0.2 log units of each other in pEC50: 6.95 for the first, 7.02 for the second.

Compared with O=C(NC1(c2ccccc2)CC1)C1CN(c2c3c(nc4ccnn24)CCNCC3)C1 [Example 31.92], C[C@H](c1ccccc1)N(C)C(=O)C1CN(c2c3c(nc4ccnn24)CCNCC3)C1 [Example 31.90] is 0.29 log units higher in pEC50: 6.04 for the first, 6.33 for the second. The second is the more potent here.

Compared with O=C(C1CN(c2c3c(nc4ccnn24)CCNCC3)C1)N1CCc2cc(F)ccc21 [Example 31.217], COc1ccc2c(c1)CCN2C(=O)CC1CN(c2c3c(nc4ccnn24)CCNCC3)C1 [Example 33.3] is 0.67 log units higher in pEC50: 7.25 for the first, 7.92 for the second. The second is the more potent here.

Compared with CCCCN1CCN(C(=O)C2CN(c3c4c(nc5ccnn35)CCNCC4)C2)CC1=O [Example 37.51], CN1CC(NC(=O)C2CN(c3c4c(nc5ccnn35)CCNCC4)C2)C1 [Example 37.64] is 0.44 log units higher in pEC50: 7.96 for the first, 8.40 for the second.

First: CN(Cc1ccc(Cl)c(Cl)c1)C(=O)C1CCCN(c2c3c(nc4ccnn24)CCNCC3)C1 (stereo not shown) [Example 1.57]
Second: CN(Cc1cccc(Cl)c1Cl)C(=O)C1CN(c2c3c(nc4ccnn24)CCNCC3)C1 [Example 31.168]
The pEC50 of the first is 1.44 log units lower: 5.53 for the first, 6.97 for the second.

Compared with CN(C)C(=O)[C@H]1CCN(c2c3c(nc4ccnn24)CCNCC3)C1 [Example 1.63], COCCN(C)C(=O)C1CN(c2c3c(nc4ccnn24)CCNCC3)C1 [Example 31.3] is 0.48 log units higher in pEC50: 5.57 for the first, 6.05 for the second.

Going from OC1CCN(c2c3c(nc4ccnn24)CCNCC3)CC1 [Example 1.36] to OC[C@H]1CCN1c1c2c(nc3ccnn13)CCNCC2 [Example 8.2], the pEC50 rises from 5.73 to 6.98 (1.25 log units). The second is the more potent here.

Cc1cnn2c(N3CC(C(=O)N4CCc5c(cccc5C(F)(F)F)C4)C3)c3c(nc12)CCNCC3 [Example 31.239] and Cc1cnn2c(N3CC(C(=O)N4CCC(c5ccccc5F)CC4)C3)c3c(nc12)CCNCC3 [Example 31.243] are within 0.2 log units of each other in pEC50: 7.10 for the first, 7.09 for the second.

Compared with Cc1cc(C#N)cc(C)c1OC1CN(c2c3c(nc4ccnn24)CCNCC3)C1 [Example 35.15], COc1cc(C)cc(OCC2CN(c3c4c(nc5ccnn35)CCNCC4)C2)c1 [Example 15.22] is 0.85 log units lower in pEC50: 7.70 for the first, 6.85 for the second. The first is the more potent here.

CC1CNCCc2c1nc1ccnn1c2N1CC(C(=O)N2CCC(C)(C)C2)C1 (stereo not shown) [Example 42, (3,3-Dimethyl-pyrrolidin-1-yl)-[1-(5-methyl-6,7,8,9-tetrahydro-5H-1,4,7,10a-tetraaza-cyclohept[f]inden-10-yl)-azetidin-3-yl]-methanone] and CCC(CC)CNC(=O)C1CN(c2c3c(nc4ccnn24)CCNCC3)C1 [Example 37.88] are within 0.2 log units of each other in pEC50: 7.51 for the first, 7.44 for the second.

COc1cccc(OCC2CN(c3c4c(nc5ccnn35)CCNCC4)C2)c1 [Example 15.20] and COc1ccccc1OCC1CN(c2c3c(nc4ccnn24)CCNCC3)C1 [Example 15.21] are within 0.2 log units of each other in pEC50: 7.59 for the first, 7.54 for the second.

First: CN1CCc2nc3ccnn3c(N3CC(C(=O)NC4CCCC(C(F)(F)F)C4)C3)c2CC1 (stereo not shown) [Example 36.45]
Second: O=C(C1CCCC1)N1CCN(C(=O)C2CN(c3c4c(nc5ccnn35)CCNCC4)C2)CC1 [Example 37.87]
The pEC50 of the first is 0.99 log units lower: 7.06 for the first, 8.05 for the second.

Compared with Cc1cnn2c(N3CC(C(=O)N(C)Cc4ccc(OC(F)F)cc4)C3)c3c(nc12)CCNCC3 [Example 31.249], CCc1cnn2c(N3CC(Oc4ccc(OC)cc4)C3)c3c(nc12)CCNCC3 [Example 25.1] is 0.69 log units lower in pEC50: 7.80 for the first, 7.11 for the second.

COc1ccc(CC2CN(c3c4c(nc5ccnn35)CCNCC4)C2)cc1 [Example 18.1] and Clc1cccnc1OC1CN(c2c3c(nc4ccnn24)CCNCC3)C1 [Example 20.11] are within 0.2 log units of each other in pEC50: 6.92 for the first, 6.94 for the second.

For COC[C@@H]1CCCN1c1c2c(nc3ccnn13)CCNCC2 [Example 1.11], the pEC50 was 6.30.
